Results: patent US12427175B2, “Fecal fungome and therapeutic efficacy of fecal microbiota transplantation” (priority 2018, dated 2025)
Entries after “also recorded” stand apart in the source; their conditions may differ.

How the values were obtained:
[1] = test system: Clostridium difficile infection (CDI); assay: Randomised controlled trial of FMT versus vancomycin (STD) in patients with CDI: treatment outcome; assay type: in vivo, human
Description: The current study was a sub-study from a randomised controlled trial (RCT) of FMT versus vancomycin (standard therapy, STD) for patients with CDI. Consecutive CDI subjects enrolled into this randomised controlled trial were invited to participate in a substudy of assessment of fecal microbiota. Patients were included if they had three or more loose or watery stools per day for at least two consecutive days or eight or more soft or loose stools in 48 hours and a positive stool test for C. difficile based on a two-step testing algorithm in our hospital, a positive GDH (Glutamate dehydrogenase) screening test followed by a positive polymerase chain reaction (PCR) test of C. difficile. A total of 31 subjects with CDI and 24 healthy household controls were recruited and stool samples at baseline were obtained for analyses of fungal and bacterial microbiomes. Among them, 24 CDI subjects consented to have stool samples collected serially after treatment for microbiome analysis. 16 CDI subjects were treated with FMT and 8 were treated with vancomycin, and they were followed up at baseline and at weeks 2, 4, 10 and 16 after treatment (FIG. 6). Subjects in the FMT group received 5 days of vancomycin followed by donor infused stool via nasojejunal route and those who had STD received oral vancomycin 500 mg orally four times per day for 10 days. A computer-generated randomization schedule was used to assign patients to the treatment sequences. All patients kept a stool diary and were questioned about stool frequency and consistency and medication use.
Treatment response was defined as an absence of diarrhea or persistent diarrhea that could be explained by other causes with a negative stool test for C. difficile toxin, while relapse was defined as diarrhea with a positive stool test for C. difficile toxin. […]
In subjects who received FMT, a nasoduodenal tube was inserted with radiology guidance. […] The tube was removed 30 minutes after the infusion, and patients were monitored for 2 hours. […]

gut mycobiota = assay: Fungal ITS2 sequencing of fecal DNA (gut mycobiota diversity, richness, composition); assay type: in vivo, human
Description: (§1) Fecal DNA was isolated as described below. 100 mg fecal sample was pre-washed with 1 ml ddH2O and pelleted by centrifugation at 10,000×g for 1 minute. The fecal pellet was re-suspended in 800 μl TE buffer (pH 7.5), supplemented with 1.6 μl 2-Mercaptoethanol and 500 U lyticase (Sigma), and incubated at 37° C. for 60 min. The sample was then centrifuged at 10,000×g for 2 minutes and fecal DNA was subsequently extracted from the pellet using ZR Fecal DNA miniPrep kit (Zymo Research, Orange, CA) according to the protocol. Briefly, fecal pellet was added to the BashingBeadLysis Tube with 750 μl Lysis solution, and then processed at maximum speed for 10 minutes. The lysates were centrifuged at ≥10,000×g for 1 minute. The supernatant was transferred to a Zymo-Spin™ IV Spin Filter in a collection tube and centrifuged at 7,000×g for 1 minute. About 1,200 μl of fecal DNA binding buffer was added to the filtrate in the collection tube, followed by concentration and purification in a new filter tube. Finally, a total of 50 μl eluted DNA with a concentration at 20-100 ng/μl was prepared for each sample.
The final fecal DNA for fungal sequencing was amplified based upon ITS2 (Internal transcribed spacer 2) region using primers as below and PrimeSTAR HS DNA Polymerase kit (TaKaRa, Japan). The primer pairs are ITS2-F: 5′-[…]-3′, ITS2-R: 5′-[…]-3′ (SEQ ID NOs 1 and 2, respectively). ITS2 amplicons were generated with 38 cycles of 3-step PCR: 98° C. 10 s, 59° C. 10 s, and 72° C. 30 s. PCR samples were then sequenced on the Illumina MiSeq PE300 platform (2×300 bp, BGI, China), 151,524±97,694 (number±SD) clean sequences obtained on average (sequence statistics in Table 4).
Raw reads were filtered by SOAPnuke (v 1.5.3) (web site: soap.genomics.org.cn/) developed by BGI as follows: (i) adaptors removed, (ii) read removed if N base is more than 3% of the read, (iii) read removed if bases with quality low than 20 were more than 40% of read, (iv) all duplicates removed. Quality control and data analysis were further implemented in PIPITS (v 1.4.5) 31. Briefly, PIPITS_PREP prepares raw reads from Illumina MiSeq sequencers for ITS extraction; PIPITS_FUNITS extracts ITS2 from the reads; and PIPITS_PROCESS analyses the reads to produce operational taxonomic unit (OTU) abundance tables and the RDP taxonomic assignment table for downstream analysis. The quality trimmed and ITS2 extracted reads were aligned to fungi UNITE database exploiting RDP classifier 2.10 for taxonomic assignment to produce operational taxonomic unit (OTU) abundance table (based on sequence identity >97% identity) and phylotype abundance tables at different taxonomic levels, for downstream analysis.
The fungal OTU and phylptype abundance data were imported into R 3.2.3. Richness, diversity, and evenness calculation were performed using the estimated richness function of the phyloseq package. Spearman correlation and their significance were calculated using the cor and cor.test functions in R, respectively. […] Correlation plots were generated using the corrplot package in R. Heat maps were generated using the pheatmap package in R.
To compare differences in the configurations of fungal and bacterial microbiomes between CDI patients and healthy controls, between FMT responders and non-responders, between FMT treatment and vancomycin (STD) treatment, Lefse analyses were performed on the Huttenhower lab Galaxy server (web site: huttenhower.sph.harvard.edu/galaxy/) by importing the […] and bacterial relative abundance values and associated sample metadata, with FDR adjusted p value <0.05 considered significant and effect size calculated. […]

gut bacterial microbiota = assay: Bacterial 16S rRNA sequencing of fecal DNA (bacterial microbiota diversity, richness); assay type: in vivo, human; conditions: responders
Description: as §1
The final fecal DNA samples were subject to bacterial 16S rRNA V4 region amplification and sequenced on the Illumina MiSeq PE250 platform (2×250 bp, BGI, China), 132,081±65,429 (number±SD) sequences obtained on average (sequence statistics in Table 5). […]

C. difficile = assay: Antifungal (fluconazole) treatment before FMT in mice with di-colonisation of C. albicans and C. difficile; assay type: in vivo, mouse (C57BL/6); conditions: recipient mice colonized with C. albicans; fluconazole 0.5 mg/mL in drinking water 4 days before stool infusion
Description: Mice was initially colonized with C. albicans (2×10^8 cfu per mouse) after 3 days of antibiotic cocktail treatment in the drinking water, followed by 4 days of fluconazole treatment supplemented in the drinking water (0.5 mg/mL, Sigma). Then the mice were subjected to C. difficile administration (10^7 spores per mice) through gavage after a consecutive 1.5-day antibiotic cocktail- and 1.5-day free water-drinking. Human stool infusion was performed 2 days later after C. difficile gavage. Both C. difficile load and C. albicans load were enumerated by cultivation on Day 0 before FMT and Day 1 after FMT.
Mouse stool were collected both before and after stool infusion. Fecal C. difficile and C. albicans burdens on day 0 before and day 1 after stool infusion were measured by cultivation. Samples were diluted in PBS and respectively plated on taurocholate cycloserine cefoxitin fructose agar (TCCFA) for quantification of C. difficile burden, on Sabouraud dextrose agar (SDA) for quantification of C. albicans load. Stool samples prior to C. albicans colonization from antibiotic-treated mice were plated on SDA to ensure that mice were C. albicans culture negative.

C. albicans = assay: Enumeration of C. albicans in feces of mice by cultivation on SDA; assay type: in vivo, mouse (C57BL/6); conditions: day 4 after administration of C. albicans, fluconazole in drinking water
Description: Mice was initially colonized with C. albicans (2×10^8 cfu per mouse) after 3 days of antibiotic cocktail treatment in the drinking water, followed by 4 days of fluconazole treatment supplemented in the drinking water (0.5 mg/mL, Sigma). […] Both C. difficile load and C. albicans load were enumerated by cultivation on Day 0 before FMT and Day 1 after FMT.
C. albicans (10231, purchased from ATCC, USA) was administered to mice (2×10^8 cfu per mouse) via gavage after 3-day antibiotic treatment or supplemented in donor stool slurry at the time of donor stool infusion.

Compound | subjects who developed recurrence of CDI (non-responders) ([1]; 16 subjects on FMT, 8 on vancomycin) | subjects cured of CDI / symptom-free with negative stool C. difficile toxin at last follow-up (responders) ([1]; 16 subjects on FMT, 8 on vancomycin, median follow-up of 16 weeks) | Recurrence at week ([1]; individual CDI subject with recurrence, listed as STD) | alterations in fungal richness and diversity during longitudinal follow-up (gut mycobiota; 8 CDI subjects treated with vancomycin) | CDI subjects with an increase in gut fungal richness after treatment (gut mycobiota; 11 out of 16 (FMT), 3 out of 8 (vancomycin)) | CDI subjects with an increase in gut fungal diversity after treatment (gut mycobiota; 13 out of 16 (FMT), 3 out of 8 (vancomycin)) | fungal genera enriched in treatment responders after treatment (LefSe) (gut mycobiota; all follow-up samples of treatment responders) | genus Candida in fungal composition after treatment (gut mycobiota; during follow-up across STD subjects) | relative abundance of fecal C. albicans after treatment (gut mycobiota; last follow-up vs baseline, vancomycin: STD responders) | change in bacterial diversity after treatment (gut bacterial microbiota) | efficacy of FMT in clearing C. difficile infection after anti-fungal treatment (C. difficile) | C. albicans in feces by cultivation (C. albicans)
CN[C@H](CC(C)C)C(=O)N[C@H]1C(=O)N[C@@H](CC(N)=O)C(=O)N[C@H]2C(=O)N[C@H]3C(=O)N[C@H](C(=O)N[C@H](C(=O)O)c4cc(O)cc(O)c4-c4cc3ccc4O)[C@H](O)c3ccc(c(Cl)c3)Oc3cc2cc(c3O[C@@H]2O[C@H](CO)[C@@H](O)[C@H](O)[C@H]2O[C@H]2C[C@](C)(N)[C@H](O)[C@H](C)O2)Oc2ccc(cc2Cl)[C@H]1O [vancomycin] | three | 5 of the 8 and Five of the eight | week 12; also recorded: week 7; also recorded: week 5 | inconsistent alterations | 37.5% | 37.5% | Candida, Talaromyces, Erythrobasidium, Periconia, Stemphylium, Ganoderma | marked expansion | decrease | significant increase | – | –
OC(Cn1cncn1)(Cn1cncn1)c1ccc(F)cc1F [fluconazole] | – | – | – | – | – | – | – | – | – | – | restored the efficacy of FMT in clearing C. difficile infection | negative
